Laboratory results reported in paper PMC4774972, “Activity and Predicted Nephrotoxicity of Synthetic Antibiotics Based on Polymyxin B” (Journal of Medicinal Chemistry, 2016).
Converted amounts (≈) assume the structure as drawn. Where two headings read alike, the source gives them in different places. Bridge positions count the residues as written; N and C are the ends. Square brackets hold non-standard residues; d marks the D form. Peptide text beside a SMILES is read from it. * marks the point of attachment. Phe(4-NH2) = Nc1ccc(C[C@H](N)C(=O)O)cc1; Octanoyl = CCCCCCCC(=O)*; Dab = NCC[C@H](N)C(=O)O

Assays:
A. baumannii ATCC 19606 [1] = type: cell-based, Acinetobacter baumannii; settings: MHB, 5 × 10^5 CFU/mL, read visually after 18 h at 37 °C
Experimental: (§1) Bacteria were either obtained from American Type Culture Collection (ATCC; Manassas, VA, USA) or independent academic clinical isolate collections, as listed in Table S2. Bacteria were cultured in nutrient broth (NB; Bacto Laboratories, catalog no. 234000) or Muller Hinton broth (MHB; Bacto Laboratories, catalog no. 211443) at 37 °C overnight with shaking (∼180 rpm). A sample of each culture was then diluted 50-fold in fresh MHB and incubated at 37 °C for 1.5–3 h with shaking (∼180 rpm). Compound stock solutions were prepared as 0.64 or 2.56 mg/mL in water. The compounds, at twice the final desired concentration, were serially diluted 2-fold across the wells of 96-well plates (Polystyrene, Corning, catalogue No. 3370). Mid log phase bacterial cultures (after 1.5–3 h incubation) were diluted to a final concentration of 5 × 10^5 colony forming units (CFU)/mL, and 50 μL was added to each well giving a final compound concentration range of 32 μg/mL to 0.015 μg/mL (128–0.06 μg/mL for colistin and polymyxin B against the polymyxin resistant clinical isolates). MICs were determined visually after 18 h of incubation at 37 °C, with the MIC defined as the lowest compound concentration at which no bacterial growth was visible.
(§2) Table S2. Bacterial strains used for Minimum Inhibitory Concentration (MIC) […]
(§3) Organism Strain Strain description Strain Source
(§4) Escherichia coli ATCC 25922 FDA strain Seattle 1946 ATCC
(§5) Klebsiella pneumoniae ATCC 13883 Control strain ATCC
(§6) Klebsiella pneumoniae ATCC 700603 Multi-drug resistant ATCC
(§7) Klebsiella pneumoniae BAA-2146 Metallo-beta-lactamase- ATCC
(§8) Acinetobacter baumannii ATCC 19606 Type strain ATCC
(§9) Pseudomonas aeruginosa ATCC 27853 Type strain ATCC
(§10) Pseudomonas aeruginosa FADDI-PA070 Clinical isolate, Nation and Li labs, polymyxin resistant Monash University
(§11) Clinical isolate, Wang Hengzhuang, Pseudomonas aeruginosa PA9704 polymyxin resistant University Hospital of […]
(§12) Ptyela Clinical isolate, Ilias Karaiskos and Acinetobacter baumannii Carbapenem & Helen Giamarellou
(§13) Clinical isolate, Medicine, Hygeia
(§14) Klebsiella pneumoniae Koprana Carbapenem, & General Hospital, […]
(§15) Clinical isolate, (Instituto Dante […]
(§16) polymyxin resistant Cardiologia, São […]

[2] = system: A. baumannii CI Ptyela 100734512:2, PmxR; test: microbe, parasite or virus in culture; type: cell-based, Acinetobacter baumannii; settings: carbapenem & polymyxin resistant clinical isolate, MHB, 5 × 10^5 CFU/mL, 18 h at 37 °C
E. coli ATCC 25922 [3] = test: microbe, parasite or virus in culture; type: cell-based, Escherichia coli; settings: MHB, 5 × 10^5 CFU/mL, read visually after 18 h at 37 °C
Experimental: as §1, §2, §3, §4, §5, §6, §7, §8, §9, §10, §11, §12, §13, §14, §15, §16

K. pneumoniae ATCC 13883 [4] = test: microbe, parasite or virus in culture; type: cell-based, Klebsiella pneumoniae; settings: MHB, 5 × 10^5 CFU/mL, read visually after 18 h at 37 °C
[5] = system: K. pneumoniae CI 138-16357-20362, PmxR; test: microbe, parasite or virus in culture; type: cell-based, Klebsiella pneumoniae; settings: carbapenem & polymyxin resistant clinical isolate, MHB, 5 × 10^5 CFU/mL, 18 h at 37 °C
[6] = system: K. pneumoniae CI Koprana 100650661:1, PmxR; test: microbe, parasite or virus in culture; type: cell-based, Klebsiella pneumoniae; settings: carbapenem & polymyxin resistant clinical isolate, MHB, 5 × 10^5 CFU/mL, 18 h at 37 °C
[7] = system: S. aureus ATCC 25923, MSSA; test: microbe, parasite or virus in culture; type: cell-based, Staphylococcus aureus; settings: MHB, 5 × 10^5 CFU/mL, read visually after 18 h at 37 °C
[8] = system: P. aeruginosa FADDI-PA070, PmxR; type: cell-based, Pseudomonas aeruginosa; settings: polymyxin resistant clinical isolate; MHB, 5 × 10^5 CFU/mL, 18 h at 37 °C
[9] = system: P. aeruginosa PA9704, PmxR; type: cell-based, Pseudomonas aeruginosa; settings: polymyxin resistant clinical isolate; MHB, 5 × 10^5 CFU/mL, 18 h at 37 °C
P. aeruginosa ATCC 27853 [10] = test: microbe, parasite or virus in culture; type: cell-based, Pseudomonas aeruginosa; settings: MHB, 5 × 10^5 CFU/mL, read visually after 18 h at 37 °C
Experimental: as §1, §2, §3, §4, §5, §6, §7, §8, §9, §10, §11, §12, §13, §14, §15, §16

[11] = system: primary human renal proximal tubule epithelial (hPT) cells; test: Nephrotoxicity assay, GGT release; type: cell-based; settings: primary human kidney cells
From the text: (§17) Primary human renal proximal tubule epithelial (hPT) cells were isolated and used for in vitro prediction of drug-induced nephrotoxicity[63],[64],[69] by measuring the release of metabolism enzymes, LDH and GGT, as previously described.[70]

[12] = system: primary human renal proximal tubule epithelial (hPT) cells; test: Nephrotoxicity assay, LDH release; type: cell-based; settings: primary human kidney cells
From the text: as §17

[13] = system: K. pneumoniae ATCC 700603, MDR; type: cell-based, Klebsiella pneumoniae; settings: MHB, 5 × 10^5 CFU/mL, read visually after 18 h at 37 °C
Experimental: as §1, §2, §3, §4, §5, §6, §7, §8, §9, §10, §11, §12, §13, §14, §15, §16

[14] = system: K. pneumoniae ATTC BAA-2146, NDM-1 pos; type: cell-based, Klebsiella pneumoniae; settings: MHB, 5 × 10^5 CFU/mL, read visually after 18 h at 37 °C
Experimental: as §1, §2, §3, §4, §5, §6, §7, §8, §9, §10, §11, §12, §13, §14, §15, §16

HEK293 cells = test: Cytotoxicity assay (resazurin assay); type: cell-based, human; settings: 4000 cells/well, 24 h incubation with compound, fluorescence 560/590
HepG2 cells = test: Cytotoxicity assay (resazurin assay); type: cell-based, human; settings: 4000 cells/well, 24 h incubation with compound, fluorescence 560/590
HepG2 = settings: CC50 HepG2 (µM)
[15] = system: S. aureus ATCC 25923, MSSA; settings: MIC S. aureus ATCC 25923, MSSA (µg/mL)
K. pneumoniae ATCC 13883 [16] = settings: MIC K. pneumoniae ATCC 13883 (µg/mL)
[17] = system: P. aeruginosa FADDI-PA070, PmxR; settings: MIC P. aeruginosa FADDI-PA070, PmxR (µg/mL)
[18] = system: K. pneumoniae CI 138-16357-20362, PmxR; settings: MIC K. pneumoniae CI 138-16357-20362, PmxR (µg/mL)
[19] = system: K. pneumoniae ATCC 700603, MDR; settings: MIC K. pneumoniae ATCC 700603, MDR(µg/mL)
[20] = system: P. aeruginosa PA9704, PmxR; settings: MIC P. aeruginosa PA9704, PmxR (µg/mL)
A. baumannii ATCC 19606 [21] = settings: MIC A. baumannii ATCC 19606 (µg/mL)
[22] = system: A. baumannii CI Ptyela 100734512:2, PmxR; settings: MIC A. baumannii CI Ptyela 100734512:2, PmxR (µg/mL)
P. aeruginosa ATCC 27853 [23] = settings: MIC P. aeruginosa ATCC 27853 (µg/mL)
E. coli ATCC 25922 [24] = settings: MIC E. coli ATCC 25922 (µg/mL)
[25] = system: K. pneumoniae CI Koprana 100650661:1, PmxR; settings: MIC K. pneumoniae CI Koprana 100650661:1, PmxR (µg/mL)
[26] = system: K. pneumoniae ATTC BAA-2146, NDM-1 pos; settings: MIC K. pneumoniae ATTC BAA-2146, NDM-1 pos (µg/mL)

Molecule | MIC A. baumannii ATCC 19606 (A. baumannii ATCC 19606 [1]) | MIC A. baumannii CI Ptyela 100734512:2, PmxR [2] | MIC K. pneumoniae ATCC 13883 (K. pneumoniae ATCC 13883 [4]) | MIC K. pneumoniae CI 138-16357-20362, PmxR [5] | MIC K. pneumoniae CI Koprana 100650661:1, PmxR [6] | MIC S. aureus ATCC 25923, MSSA [7] | MIC P. aeruginosa FADDI-PA070, PmxR [8] | MIC P. aeruginosa PA9704, PmxR [9] | MIC P. aeruginosa ATCC 27853 (P. aeruginosa ATCC 27853 [10]) | GGT release CC50 [11] | LDH release CC50 [12] | MIC K. pneumoniae ATCC 700603, MDR [13] | MIC K. pneumoniae ATTC BAA-2146, NDM-1 pos [14] | HEK293 CC50 (HEK293 cells) | HepG2 - CC50 (HepG2 cells) | further results
6Me-C7CO/ 6Me-C6CO Dab Thr Dab Dab Dab D-Leu Leu Dab Dab (lariat or depsi) [Colistin 2, polymyxin E (colistin), macrocyclic lipodecapeptide antibiotic, D-Leu at position-6, reference compound] | 0.25 µg/mL | >64 µg/mL | 0.25 µg/mL | 64 µg/mL | >128 µg/mL | >128 µg/mL | >32 µg/mL | 128 µg/mL | 0.5 µg/mL | 48 µg/mL | 25 µg/mL | 0.25 µg/mL | 0.25 µg/mL | >300 µM | >300 µM | MIC E. coli ATCC 25922 (E. coli ATCC 25922 [3]): 0.25 µg/mL
CCCCCCCC(=O)N[C@@H](CCN)C(=O)N[C@H](C(=O)N[C@@H](CCN)C(=O)N[C@H]1CCNC(=O)[C@H]([C@@H](C)O)NC(=O)[C@H](CCN)NC(=O)[C@H](CCN)NC(=O)[C@H](CC(C)C)NC(=O)[C@@H](Cc2ccccc2)NC(=O)[C@H](Cc2ccc(N)cc2)NC1=O)[C@@H](C)O [Compound 34] (Octanoyl-[Dab]T[Dab][Dab][Phe(4-NH2)][dF]L[Dab][Dab]T; lactam 4-C) |  |  |  | >32 µg/mL | >32 µg/mL |  |  |  |  |  |  |  | >32 µg/mL |  |  | CC50 (HepG2): > 300 µM; MIC [15]: > 32 µg/mL; MIC (K. pneumoniae ATCC 13883 [16]): > 32 µg/mL; MIC [17]: > 32 µg/mL; MIC [18]: > 32 µg/mL; MIC [19]: > 32 µg/mL; MIC [20]: > 32 µg/mL; MIC (A. baumannii ATCC 19606 [21]): > 32 µg/mL; MIC [22]: > 32 µg/mL; MIC (P. aeruginosa ATCC 27853 [23]): > 32 µg/mL; MIC (E. coli ATCC 25922 [24]): > 32 µg/mL; MIC [25]: > 32 µg/mL; MIC [26]: > 32 µg/mL
CNC(C)C1CCC(N)C(OC2C(N)CC(N)C(OC3OCC(C)(O)C(NC)C3O)C2O)O1 (stereo not drawn) [Gentamicin, reference compound] |  |  |  |  |  |  |  |  |  | 33 µg/mL | 33 µg/mL |  |  | >300 µM | >300 µM | MIC ([2]; Acinetobacter baumannii): > 32 µg/mL; MIC (E. coli ATCC 25922 [3]; Escherichia coli, ATCC25922, 18 h): 0.25 µg/mL (≈ 0.523 µM); MIC (K. pneumoniae ATCC 13883 [4]; Klebsiella pneumoniae, ATCC13883): 0.25 µg/mL (≈ 0.523 µM); MIC ([5]; Klebsiella pneumoniae): 1 µg/mL (≈ 2.09 µM); MIC ([6]; Klebsiella pneumoniae): > 32 µg/mL; MIC (P. aeruginosa ATCC 27853 [10]; Pseudomonas aeruginosa, ATCC27853): 1 µg/mL (≈ 2.09 µM)
CC[C@H](C)CCCCC(=O)N[C@@H](CCN)C(=O)N[C@H](C(=O)N[C@@H](CCN)C(=O)N[C@H]1CCNC(=O)[C@H]([C@@H](C)O)NC(=O)[C@H](CCN)NC(=O)[C@H](CCN)NC(=O)[C@H](CC(C)C)NC(=O)[C@@H](Cc2ccccc2)NC(=O)[C@H](CCN)NC1=O)[C@@H](C)O [Polymyxin B 1, polymyxin B] | 0.25 µg/mL (≈ 0.208 µM) | 64 µg/mL (≈ 53.2 µM) | 1 µg/mL (≈ 0.831 µM) | 64 µg/mL (≈ 53.2 µM) | 64 µg/mL (≈ 53.2 µM) | >64 µg/mL | 32 µg/mL (≈ 26.6 µM) | 128 µg/mL (≈ 106 µM) | 0.5 µg/mL (≈ 0.415 µM) | 177 µg/mL | 23 µg/mL | 0.5 µg/mL (≈ 0.415 µM) | 0.25 µg/mL (≈ 0.208 µM) | >300 µM | >300 µM | 
